Data as given in PubChem BioAssay (NCI).
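The concentration for 50% growth inhibition is given as GI50. TGI marks complete inhibition of growth.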

What was measured:
Test in all cases: NCI anticancer screen, dose series, 384-well format
A498 renal = system: A498 renal
A549 NSCLC = system: A549 NSCLC
ACHN renal = system: ACHN renal
BT-549 breast = system: BT-549 breast
CAKI-1 renal = system: CAKI-1 renal
COLO 205 colon = system: COLO 205 colon
DU-145 prostate = system: DU-145 prostate
EKVX NSCLC = system: EKVX NSCLC
HCC-2998 colon = system: HCC-2998 colon
HCT-116 colon = system: HCT-116 colon
HCT-15 colon = system: HCT-15 colon
HL-60(TB) leukemia = system: HL-60(TB) leukemia
HOP-62 NSCLC = system: HOP-62 NSCLC
HOP-92 NSCLC = system: HOP-92 NSCLC
HS 578T breast = system: HS 578T breast
HT29 colon = system: HT29 colon
IGROV1 ovarian = system: IGROV1 ovarian
KM12 colon = system: KM12 colon
LOX IMVI melanoma = system: LOX IMVI melanoma
M14 melanoma = system: M14 melanoma
MALME-3M melanoma = system: MALME-3M melanoma
MCF7 breast = system: MCF7 breast
MDA-MB-231 breast = system: MDA-MB-231 breast
MDA-MB-435 melanoma = system: MDA-MB-435 melanoma
MDA-MB-468 breast = system: MDA-MB-468 breast
MOLT-4 leukemia = system: MOLT-4 leukemia
NCI-H226 lung = system: NCI-H226 lung
NCI-H23 lung = system: NCI-H23 lung
NCI-H322M lung = system: NCI-H322M lung
NCI-H460 NSCLC = system: NCI-H460 NSCLC
NCI-H522 lung = system: NCI-H522 lung
NCI/ADR-RES ovarian = system: NCI/ADR-RES ovarian
OVCAR-3 ovarian = system: OVCAR-3 ovarian
OVCAR-4 ovarian = system: OVCAR-4 ovarian
OVCAR-5 ovarian = system: OVCAR-5 ovarian
OVCAR-8 ovarian = system: OVCAR-8 ovarian
PC-3 prostate = system: PC-3 prostate
RPMI-8226 leukemia = system: RPMI-8226 leukemia
RXF 393 renal = system: RXF 393 renal
SF-268 CNS = system: SF-268 CNS
SF-295 CNS = system: SF-295 CNS
SF-539 CNS = system: SF-539 CNS
SK-MEL-28 melanoma = system: SK-MEL-28 melanoma
SK-MEL-5 melanoma = system: SK-MEL-5 melanoma
SK-OV-3 ovarian = system: SK-OV-3 ovarian
SN12C renal = system: SN12C renal
SNB-19 CNS = system: SNB-19 CNS
SNB-75 CNS = system: SNB-75 CNS
SR leukemia = system: SR leukemia
T-47D breast = system: T-47D breast
TK-10 renal = system: TK-10 renal
U251 glioblastoma = system: U251 glioblastoma
UACC-257 melanoma = system: UACC-257 melanoma
UACC-62 melanoma = system: UACC-62 melanoma

`N[C@@H]1CCCN(c2c(/C=C3\SC(=O)NC3=O)cccc2-c2ccccc2)C1` was tested, and the GI50 (A498 renal) was 16.6 µM, the TGI (A498 renal) was 30.3 µM and the GI50 (A549 NSCLC) was 16.7 µM. For the same compound, the TGI (A549 NSCLC) was 30.8 µM, the GI50 (ACHN renal) was 17.7 µM and the TGI (ACHN renal) was 31.7 µM. It also gave a GI50 (BT-549 breast) of 1.9 µM, a TGI (BT-549 breast) of 4.17 µM and a GI50 (CAKI-1 renal) of 18.5 µM. For the same compound, the TGI (CAKI-1 renal) was 32.8 µM, the GI50 (COLO 205 colon) was 14.1 µM and the TGI (COLO 205 colon) was 27.1 µM. The GI50 (DU-145 prostate) was 16.9 µM, the TGI (DU-145 prostate) was 30.7 µM and the GI50 (EKVX NSCLC) was 16.4 µM. The TGI (EKVX NSCLC) was 30 µM, the GI50 (HCC-2998 colon) was 14.5 µM and the TGI (HCC-2998 colon) was 27.7 µM. For the same compound, the GI50 (HCT-116 colon) was 15.4 µM, the TGI (HCT-116 colon) was 28.9 µM and the GI50 (HCT-15 colon) was 17.7 µM. The TGI (HCT-15 colon) was 31.7 µM, the GI50 (HL-60(TB) leukemia) was 1.31 µM and the TGI (HL-60(TB) leukemia) was 16.5 µM. It also gave a GI50 (HOP-62 NSCLC) of 11.7 µM, a TGI (HOP-62 NSCLC) of 23.9 µM and a GI50 (HOP-92 NSCLC) of 11.5 µM. It also gave a TGI (HOP-92 NSCLC) of 23.8 µM, a GI50 (HS 578T breast) of 13.8 µM and a TGI (HS 578T breast) of 26.8 µM. It also gave a GI50 (HT29 colon) of 15.2 µM, a TGI (HT29 colon) of 28.8 µM and a GI50 (IGROV1 ovarian) of 17.1 µM. For the same compound, the TGI (IGROV1 ovarian) was 31.2 µM, the GI50 (KM12 colon) was 16.9 µM and the TGI (KM12 colon) was 30.8 µM. The GI50 (LOX IMVI melanoma) was 17.8 µM, the TGI (LOX IMVI melanoma) was 31.6 µM and the GI50 (M14 melanoma) was 14.6 µM. The TGI (M14 melanoma) was 27.8 µM, the GI50 (MALME-3M melanoma) was 12.9 µM and the TGI (MALME-3M melanoma) was 25.7 µM. For the same compound, the GI50 (MCF7 breast) was 14.5 µM, the TGI (MCF7 breast) was 27.8 µM and the GI50 (MDA-MB-231 breast) was 14.5 µM. The TGI (MDA-MB-231 breast) was 27.8 µM, the GI50 (MDA-MB-435 melanoma) was 15.1 µM and the TGI (MDA-MB-435 melanoma) was 28.5 µM. The GI50 (MDA-MB-468 breast) was 14.6 µM, the TGI (MDA-MB-468 breast) was 27.8 µM and the GI50 (MOLT-4 leukemia) was 13.4 µM. The TGI (MOLT-4 leukemia) was 26.3 µM, the GI50 (NCI-H226 lung) was 13.8 µM and the TGI (NCI-H226 lung) was 26.7 µM. The GI50 (NCI-H23 lung) was 16.8 µM, the TGI (NCI-H23 lung) was 30.6 µM and the GI50 (NCI-H322M lung) was 18 µM. The TGI (NCI-H322M lung) was 31.9 µM, the GI50 (NCI-H460 NSCLC) was 16.8 µM and the TGI (NCI-H460 NSCLC) was 30.6 µM. It also gave a GI50 (NCI-H522 lung) of 13.5 µM, a TGI (NCI-H522 lung) of 26.4 µM and a GI50 (NCI/ADR-RES ovarian) of 18.1 µM. For the same compound, the TGI (NCI/ADR-RES ovarian) was 33.1 µM, the GI50 (OVCAR-3 ovarian) was 13.1 µM and the TGI (OVCAR-3 ovarian) was 25.9 µM. It also gave a GI50 (OVCAR-4 ovarian) of 12.3 µM, a TGI (OVCAR-4 ovarian) of 25.3 µM and a GI50 (OVCAR-5 ovarian) of 17 µM. For the same compound, the TGI (OVCAR-5 ovarian) was 30.8 µM, the GI50 (OVCAR-8 ovarian) was 16.2 µM and the TGI (OVCAR-8 ovarian) was 29.9 µM. For the same compound, the GI50 (PC-3 prostate) was 13.2 µM, the TGI (PC-3 prostate) was 26 µM and the GI50 (RPMI-8226 leukemia) was 0.543 µM. It also gave a TGI (RPMI-8226 leukemia) of 3.07 µM, a GI50 (RXF 393 renal) of 17 µM and a TGI (RXF 393 renal) of 30.8 µM. For the same compound, the GI50 (SF-268 CNS) was 16.8 µM, the TGI (SF-268 CNS) was 30.6 µM and the GI50 (SF-295 CNS) was 6.08 µM. It also gave a TGI (SF-295 CNS) of 18.7 µM, a GI50 (SF-539 CNS) of 7.38 µM and a TGI (SF-539 CNS) of 20.2 µM. For the same compound, the GI50 (SK-MEL-28 melanoma) was 16.9 µM, the TGI (SK-MEL-28 melanoma) was 30.7 µM and the GI50 (SK-MEL-5 melanoma) was 11.4 µM. It also gave a TGI (SK-MEL-5 melanoma) of 23.5 µM, a GI50 (SK-OV-3 ovarian) of 14.8 µM and a TGI (SK-OV-3 ovarian) of 28.5 µM. For the same compound, the GI50 (SN12C renal) was 19.4 µM, the TGI (SN12C renal) was 33.6 µM and the GI50 (SNB-19 CNS) was 4.67 µM. It also gave a TGI (SNB-19 CNS) of 15 µM, a GI50 (SNB-75 CNS) of 3.5 µM and a TGI (SNB-75 CNS) of 12.1 µM. It also gave a GI50 (SR leukemia) of 1.16 µM, a TGI (SR leukemia) of 15.5 µM and a GI50 (T-47D breast) of 15.6 µM. For the same compound, the TGI (T-47D breast) was 29 µM, the GI50 (TK-10 renal) was 12.3 µM and the TGI (TK-10 renal) was 24.9 µM. The GI50 (U251 glioblastoma) was 8.54 µM, the TGI (U251 glioblastoma) was 20.8 µM and the GI50 (UACC-257 melanoma) was 15.9 µM. For the same compound, the TGI (UACC-257 melanoma) was 29.4 µM, the GI50 (UACC-62 melanoma) was 16.6 µM and the TGI (UACC-62 melanoma) was 30.4 µM.
